Patent publication US20180344725A1, “QUINOLONE CHALCONE COMPOUNDS AND USES THEREOF” (priority 2015, published 2018)

What was measured:
[1] = tested on: HeLa; assay: Immunofluorescent staining: centrosomes and chromosome segregation; assay type: cell-based; settings: for ACS (abnormal chromosome segregation) / Monopolar centrosome: 3 μM
Procedure: Cells on coverslips placed on the bottom of 35 mm tissue culture plates or 6-well clustered dishes were treated for 12-24 hours with the CTR compounds to be tested. Subsequently, the cells were fixed with 100% methanol for 15 minutes and washed with 1×PBS three times. Cells were then “blocked” with 3% BSA or 1% (v/v) FBS plus 1×PBST (1×PBS buffer containing 0.1% (v/v) Triton X-100 or 0.2% Tween 20), and incubated overnight at 4° C. with primary antibodies, with gentle agitation. Unbound primary antibodies were washed off with PBST, and a secondary antibody was added for 1 hour in the dark. Secondary antibodies were conjugated to Alexa 488 or 568. DNA was counterstained with DRAQ5 or DAPI. Subsequently, coverslips were washed three times with 1×PBST for 10 minutes each, followed by mounting them onto slides with 90% glycerol in 1×PBS. Each slide was visualized with a Carl Zeiss 510 Meta laser scanning microscope or an Axioscope. Image analysis was done with an LSM image examiner equipped with the microscopes (Carl Zeiss, Toronto, ON, Canada).
The cancer-specific increase of mitotic cells in response to CTR-17 was correlated with the accumulation of cells with monopolar centrosomes and abnormal chromosome alignment/segregation (FIG. 11, Table 5). Cells were either sham-treated or treated with 3.0 μM CTR-17 for 12 hours or 24 hours, followed by analyses of cell cycle progression, centrosome abnormalities, and chromosome alignment/segregation. […] The mitotic index was determined by fluorescence microscopic analysis of at least 200 cells for each cell type, and data was expressed as percentage mean±S.E.M. of at least two independent experiments.
Asynchronously growing cells were treated with 1 μM CTR-20 for 24 hours, followed by examining cells arrested in mitosis. The percentage of mitotic cells was calculated based on the examination of at least 250-400 cells. Cells treated with 1 μM CTR-20 for 24 hours on coverslips were fixed with ice-cold methanol, immunostained with an α-tubulin antibody, and then counterstained DNA with DRAQ5 prior to observing by florescent microscopy (Table 6). […] Similarly, cells treated with 1 μM CTR-20 accumulated monopolar centrosomes and defective chromosomal alignment and segregation in a cancer-specific manner.

[2] = tested on: tubulin (vinblastine binding site); assay: BODIPY FL vinblastine competition assay; parameters: species or system porcine; settings: 25 μM; 5 μM BODIPY FL-vinblastine
Source text: For the vinblastine competition assay, fluorescence was monitored by excitation of the reaction mixture at 490 nm and the emission spectra at the 510-550 nm range.

[3] = tested on: HEK293T (kidney); assay: SRB-based cytotoxicity assay; assay type: cell-based; settings: Homo sapiens, HEK-293T, 72 hours
Outline: (§1)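 Seventy-two-hour SRB protein-staining assay with 4,000-5,000 cells/well and compounds delivered in DMSO. Fixation uses cold 10% TCA, and dye is released in Tris pH 10.5 before reading at 540 nm. Duplicate biological experiments, each in quadruplicate, feed the dose-response fits.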

[4] = tested on: T98G (brain); assay: SRB-based cytotoxicity assay; assay type: cell-based; settings: Homo sapiens, 72 hours
Outline: as §1

[5] = tested on: UC3 (Bladder); assay: SRB-based cytotoxicity assay; assay type: cell-based; settings: 72 hours
Outline: as §1

[6] = tested on: NCI-H1975 (lung); assay: SRB-based cytotoxicity assay; assay type: cell-based; settings: Homo sapiens, 72 hours
Outline: as §1

[7] = tested on: U87MG (brain); assay: SRB-based cytotoxicity assay; assay type: cell-based; settings: Homo sapiens, U-87 MG, 72 hours
Outline: as §1

[8] = tested on: A549 (lung); assay: SRB-based cytotoxicity assay; assay type: cell-based; settings: Homo sapiens, 72 hours
Outline: as §1

[9] = tested on: K562; assay: SRB-based cytotoxicity assay; assay type: cell-based; settings: Homo sapiens, Table 2
Outline: as §1

[10] = target: T1, tubulin (Sus scrofa, UniProt P02550+P02554); assay: Dissociation constant of CTR-tubulin binding (tryptophan fluorescence); parameters: species or system porcine; settings: purified tubulin 0.4 μM, 30 minutes at 37° C.
T1 construct: purchased Cytoskeleton Inc. (Denver, Colo.) T240
T1 sequence (P02554 whole entry): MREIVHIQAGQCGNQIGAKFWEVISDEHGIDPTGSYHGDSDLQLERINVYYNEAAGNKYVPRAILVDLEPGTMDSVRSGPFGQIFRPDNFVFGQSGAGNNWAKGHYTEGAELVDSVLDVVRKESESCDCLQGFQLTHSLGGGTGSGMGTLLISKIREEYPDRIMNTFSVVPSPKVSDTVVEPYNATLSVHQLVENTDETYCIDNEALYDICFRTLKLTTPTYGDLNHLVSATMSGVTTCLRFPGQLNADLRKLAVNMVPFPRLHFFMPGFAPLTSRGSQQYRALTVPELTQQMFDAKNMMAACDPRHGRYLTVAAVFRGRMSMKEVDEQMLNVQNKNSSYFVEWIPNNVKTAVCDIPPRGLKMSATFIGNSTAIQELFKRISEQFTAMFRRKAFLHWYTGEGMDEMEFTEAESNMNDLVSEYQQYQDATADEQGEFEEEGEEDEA
T1 sequence (P02550 whole entry): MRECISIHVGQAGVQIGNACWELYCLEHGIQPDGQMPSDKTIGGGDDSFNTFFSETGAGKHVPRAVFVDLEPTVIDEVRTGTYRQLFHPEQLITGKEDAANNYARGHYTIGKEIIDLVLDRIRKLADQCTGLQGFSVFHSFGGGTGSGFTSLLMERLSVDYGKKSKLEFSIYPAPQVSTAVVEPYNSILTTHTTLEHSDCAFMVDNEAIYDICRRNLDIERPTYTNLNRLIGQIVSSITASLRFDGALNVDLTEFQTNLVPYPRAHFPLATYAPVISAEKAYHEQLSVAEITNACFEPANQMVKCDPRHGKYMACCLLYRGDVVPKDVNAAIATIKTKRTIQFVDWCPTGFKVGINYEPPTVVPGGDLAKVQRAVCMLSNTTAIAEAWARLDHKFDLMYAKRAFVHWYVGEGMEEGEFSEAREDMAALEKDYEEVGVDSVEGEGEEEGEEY
Procedure: Purified tubulin (0.4 μM) was dissolved in 25 mM PIPES buffer (pH 6.8) and incubated in the presence or absence of different concentrations of CTR-17 (or CTR-20) for 30 minutes at 37° C. The intrinsic fluorescence of the tryptophan residues in the tubulin heterodimers was monitored by excitation of the reaction mixture at 295 nm and the emission spectra at the 315-370 nm wavelength range. All measurements were corrected for the inner filter using the formula Fcorrected=Fobserved×antilog [(Aex+Aem)/2], where Aex and Aem are the absorbance of the reaction mixture at the excitation and emission wavelengths, respectively. Graph Pad Prism software was used to determine the dissociation constant of the CTR compounds binding to tubulin using the following formula
wherein ΔF is the changes in fluorescence intensity of tubulin when bound with the CTR compounds, ΔFmax is the maximum change in the fluorescence intensity when tubulin is bound with the compounds, C is the concentration of the CTR compounds, and Kd is the dissociation constant of the CTR compounds bound to tubulin.

[11] = SRB-based cytotoxicity assay; assay type: cell-based; settings: human, MCF-10A cells (non-cancer breast cells); MCF10A; 31.25 nM; 72 hours; read-out: cell viability
Outline: as §1

Q: For `COc1ccccc1C(=O)/C=C/c1cc2ccccc2[nH]c1=O` [CTR-17, (E)-3-(3-(2-Methoxyphenyl)-3-oxoprop-1-enyl)quinolin-2(1H)-one], which “ACS (abnormal chromosome segregation)” value ([1]; 12 h post-treatment) is on record?
A: 20.0 ± 4.5% of total mitotic cells

Q: And the Monopolar centrosome ([1]; 12 h post-treatment)?
A: 80.0 ± 4.5% of total mitotic cells

Q: And the “ACS (abnormal chromosome segregation)” value ([1]; 24 h post-treatment)?
A: 0.0 ± 0.0% of total mitotic cells

Q: What about the Monopolar centrosome ([1]; 24 h post-treatment) of the same compound?
A: 100.0 ± 0.0% of total mitotic cells

Q: What about the “binding to the vinblastine binding site on the tubulin” value [2] of the same compound?
A: did not bind to the vinblastine binding site

Q: What about the IC50 [3] of the same compound?
A: 420 ± 70 nM

Q: What about the IC50 [4] of the same compound?
A: 820 ± 90 nM

Q: What about the IC50 [5] of the same compound?
A: 390 ± 30 nM

Q: And the IC50 [6]?
A: 600 ± 140 nM

Q: What about the IC50 [7] of the same compound?
A: 760 nM

Q: And the IC50 [8]?
A: 410 ± 60 nM

Q: And the IC50 [9]?
A: 150 ± 100 nM

Q: And the Kd [10]?
A: 4.58 ± 0.95 µM

Q: With `COc1ccccc1C(=O)/C=C/c1cc2cccc(OC)c2[nH]c1=O` [CTR-21, (E)-8-methoxy-3-(3-(2-methoxyphenyl)-3-oxoprop-1-enyl) quinolin-2(1H)-one] as the compound, how does the viability at 72 h, 0.03125 µM [11] read?
A: 26%

Q: What does the source list for `COc1ccc2[nH]c(=O)c(/C=C/C(=O)c3ccccc3OC)cc2c1` [CTR-20, (E)-6-Methoxy-3-(3-(2-methoxyphenyl)-3-oxoprop-1-enyl) quinolin-2(1H)-one]?
A: ACA/S (%) (abnormal chromosome alignment and segregation) ([1]; 1 μM, 24 hours): 34.97 ± 1.96%; Monopolar (%) ([1]; 1 μM, 24 hours): 48.13 ± 3.34%; binding to the vinblastine binding site on the tubulin [2]: did not bind to the vinblastine binding site; IC50 [3]: 190 nM; IC50 [4]: 220 ± 100 nM; IC50 [5]: 120 ± 30 nM; IC50 [6]: 390 ± 140 nM; IC50 [7]: 490 ± 130 nM; IC50 [8]: 130 ± 40 nM; IC50 [9]: 130 ± 20 nM; Kd [10]: 5.09 ± 0.49 µM

Q: For `CCOc1ccccc1C(=O)/C=C/c1cc2ccccc2[nH]c1=O` [CTR-32, (E)-3-(3-(2-ethoxyphenyl)-3-oxoprop-1-enyl)quinolin-2(1H)-one], which viability at 72 h, 0.03125 µM [11] is on record?
A: 87%
